Each structure is given as a SMILES string. Counter-ions that a name gives are not always drawn.

A word on the melting point: it is the temperature, or range, at which the solid turns liquid. With `CCOP(=O)(/C=C/c1nc(-c2ccccc2)oc1COc1ccc(OCc2nc(-c3ccccc3)oc2C)cc1)OCC`, the melting point was in the range of 124 to 125 °C.
The same measure for `CCOP(=O)(CCc1cc(OCc2ccc(OCc3nc(-c4ccco4)oc3C)c(OC)c2)nn1-c1ccccc1)OCC`: 76 to 77 °C; for `COc1cc(COc2nn(-c3ccccc3)cc2/C=C/P(=O)(OC)OC)ccc1OCc1nc(-c2ccco2)oc1C`: 107 to 108 °C; for `CCOP(=O)(/C=C/c1cn(-c2ccccc2)nc1OCc1ccc(OCc2nc(-c3ccccc3)oc2C)cc1)OCC`: 109 to 110 °C.
The same measure for `CCOP(=O)(/C=C/c1cn(-c2ccccc2)nc1OCc1ccc(OCc2nc(-c3ccco3)oc2C)cc1)OCC`: 131 to 132 °C.
The same measure for `CCOc1cc(COc2nn(-c3ccccc3)cc2/C=C/P(=O)(OCC)OCC)ccc1OCc1nc(-c2ccco2)oc1C`: 117 to 118 °C.
Take `CCOP(=O)(/C=C/c1cn(-c2ccccc2)nc1OCc1ccc(OCc2nc(-c3ccco3)oc2C)c(C(=O)OC)c1)OCC`: the melting point was in the range of 92 to 93 °C.
The same measure for `CCOP(=O)(/C=C/c1cn(-c2ccccc2)nc1OCc1ccc(OCc2nc(-c3ccco3)oc2C)c(C(=O)O)c1)OCC`: 169 to 170 °C.
Next, `CCOP(=O)(/C=C/c1cn(-c2ccccc2)nc1OCc1ccc(OCc2nc(-c3ccco3)oc2C)nc1)OCC`: 134 to 135 °C; `CCOP(=O)(/C=C/c1cn(C)nc1OCc1ccc(OCc2nc(-c3ccco3)oc2C)c(OC)c1)OCC`: 72 to 73 °C; `CCOP(=O)(/C=C/c1cn(CC)nc1OCc1ccc(OCc2nc(-c3ccco3)oc2C)c(OC)c1)OCC`: 82 to 84 °C.
Next, `CCOP(=O)(/C=C/c1cn(CCO)nc1OCc1ccc(OCc2nc(-c3ccco3)oc2C)c(OC)c1)OCC`: 95 to 96 °C; `CCOP(=O)(OCC)/C(O)=C/c1cn(-c2ccccc2)nc1OCc1ccc(OCc2nc(-c3ccco3)oc2C)c(OC)c1`: 147 to 149 °C; `CCOP(=O)(/C=C/C=C/c1cn(-c2ccccc2)nc1OCc1ccc(OCc2nc(-c3ccco3)oc2C)c(OC)c1)OCC`: 143 to 144 °C.
Molecule `CCOP(=O)(/C=C/c1cn(-c2ccccc2)nc1OCc1ccc(OCc2nc(N3CCCCC3)sc2C)c(OC)c1)OCC` came in with a melting point of 95 to 96 °C.
Next, `CCOP(=O)(/C=C/c1cn(-c2ccccc2)nc1OCc1ccc(OCc2nc(-c3ccc(C(=O)O)cc3)oc2C)c(OC)c1)OCC`: 194 to 195 °C.
The same measure for `CCOP(=O)(/C=C/c1cn(-c2ccccc2)nc1OCc1ccc(OCc2nc(-c3ccc(C(N)=O)cc3)oc2C)c(OC)c1)OCC`: 146 to 148 °C; for `CCOP(=O)(/C=C/c1cn(-c2ccccc2)nc1OCc1ccc(OCc2nc(-c3ccccc3)sc2C)c(OC)c1)OCC`: 110 to 111 °C; for `CCOP(=O)(/C=C/c1cn(-c2ccccc2)nc1OCc1ccc(OCc2nc(-c3ccc(C(=O)OC)cc3)oc2C)c(OC)c1)OCC`: 129 to 130 °C.
As to `CCOP(=O)(/C=C/c1cn(-c2ccccc2)nc1OCc1ccc(OCc2coc(-c3ccco3)n2)c(OC)c1)OCC`, the melting point was 96 to 97 °C.
Next, `CCOP(=O)(/C=C/c1cn(-c2ccccc2)nc1OCc1ccc(OCc2sc(-c3ccccc3)nc2C)c(OC)c1)OCC`: 113 to 114 °C.
Next, `CCOP(=O)(/C=C/c1cn(-c2ccccc2)nc1OCc1ccc(OCc2cn(-c3ccccn3)nc2C)c(OC)c1)OCC`: 103 to 104 °C; `CCOP(=O)(/C=C/c1cn(-c2ccccc2)nc1OCc1ccc(OCc2nc(-c3ccccc3)cn2C)c(OC)c1)OCC`: 144 to 145 °C.
Next, `CCOP(=O)(/C=C/c1cn(-c2ccccc2)nc1OCc1ccc(OCc2nc(-c3cccnc3)oc2C)c(OC)c1)OCC`: 128 to 129 °C; `CCOP(=O)(/C=C/c1cn(-c2ccccc2)nc1OCc1ccc(OCc2nc(-c3cccc(O)c3)oc2C)c(OC)c1)OCC`: 127 to 128 °C.
For the molecule `CCOP(=O)(/C=C/c1cn(-c2ccccc2)nc1OCc1ccc(OCc2nc(-c3cccc(C(=O)O)c3)oc2C)cc1)OCC`, the melting point is 153 to 155 °C.
Next, `CCOP(=O)(/C=C/c1cn(-c2ccccc2)nc1OCc1ccc(OCc2nc(N3CCOCC3)sc2C)c(OC)c1)OCC`: 88 to 90 °C; `CCOC(=O)c1ccc(-c2nc(COc3ccc(COc4nn(-c5ccccc5)cc4/C=C/P(=O)(OCC)OCC)cc3OC)c(C)o2)o1`: 129 to 130 °C.
The same measure for `CCOP(=O)(/C=C/c1cn(-c2ccccc2)nc1OCc1ccc(OCc2nc(-c3ccc(OC)c(C(=O)OC)c3)oc2C)c(OC)c1)OCC`: 144 to 145 °C; for `CCOP(=O)(/C=C/c1cnc(-c2ccccc2)nc1OCc1ccc(OCc2nc(-c3ccco3)oc2C)c(OC)c1)OCC`: 103 to 104 °C; for `CCOP(=O)(/C=C\c1cnc(-c2ccccc2)nc1OCc1ccc(OCc2nc(-c3ccco3)oc2C)c(OC)c1)OCC`: 154 to 155 °C.
Next, `CCOC(=O)/C=C/c1nc(COc2ccc(COc3nn(-c4ccccc4)cc3/C=C/P(=O)(OCC)OCC)cc2OC)c(C)o1`: 130 to 131 °C.
Consider `CCOP(=O)(/C=C/c1cn(-c2ccccc2)nc1OCc1ccc(OCc2nc(-c3ccc(C)c(C(=O)OC)c3)oc2C)c(OC)c1)OCC`, for which the melting point lay in the range of 121 to 122 °C.
The same measure for `CCOP(=O)(/C=C/c1cn(-c2ccccc2)nc1OCc1ccc(OCc2nc(-c3ccc(C)c(C(=O)O)c3)oc2CC)c(OC)c1)OCC`: 165 to 166 °C.
Next, `CCOP(=O)(/C=C/c1cn(-c2ccccc2)nc1OCc1ccc(OCc2nc(N3CCC(C(=O)O)CC3)sc2C)c(OC)c1)OCC`: 159 to 160 °C.
The same measure for `CCOC(=O)c1ccc(-c2nc(COc3ccc(COc4nn(-c5ccccc5)cc4/C=C/P(=O)(OCC)OCC)cc3OC)c(C)o2)s1`: 114 to 115 °C; for `CCOP(=O)(/C=C/c1cn(-c2ccccc2)nc1OCc1ccc(OCc2nc(-c3ccc(C(=O)O)s3)oc2C)c(OC)c1)OCC`: 165 to 166 °C; for `CCOP(=O)(/C=C/c1cn(-c2ccccc2)nc1OCc1ccc(OCc2nc(-c3cccc(C#N)c3)oc2C)c(OC)c1)OCC`: 147 to 148 °C.
Consider `CCOP(=O)(/C=C\c1cn(-c2ccccc2)nc1OCc1ccc(OCc2nc(-c3cccc(C(=O)OC)c3)oc2C)c(OC)c1)OCC`, for which the melting point was 112 to 113 °C.
The same measure for `CCOP(=O)(/C=C\c1cn(-c2ccccc2)nc1OCc1ccc(OCc2nc(-c3cccc(C(=O)O)c3)oc2C)c(OC)c1)OCC`: 158 to 159 °C; for `CCOP(=O)(/C=C/c1cn(-c2ccccc2)nc1OCc1ccc(OCc2nc(-c3ccc(CC(=O)[O-])cc3)oc2C)c(OC)c1)OCC.[Na+]`: 109 to 110 °C; for `COc1cc(COc2nn(-c3ccccc3)cc2C(C[N+](=O)[O-])C[N+](=O)[O-])ccc1OCc1nc(-c2ccco2)oc1C`: 126 to 127 °C.
The same measure for `COc1cc(COc2nn(-c3ccccc3)cc2C=O)ccc1OCc1nc(-c2cccc(OS(C)(=O)=O)c2)oc1C` (as salt: methanesulfonate) [Example 228, 3-{4-[(4-{[(4-formyl-1-phenyl-1H-pyrazol-3-yl)oxy]methyl}-2-methoxyphenoxy)methyl]-5-methyl-1,3-oxazol-2-yl}phenyl methanesulfonate]: 146 to 148 °C; for `CCOC(=O)c1cn(Cc2ccccc2)nc1OCc1ccc(OCc2nc(-c3ccccc3)oc2C)c(OC)c1` [Example 1, ethyl 1-benzyl-3-({3-methoxy-4-[(5-methyl-2-phenyl-1,3-oxazol-4-yl)methoxy]benzyl}oxy)-1H-pyrazole-4-carboxylate]: 154 to 155 °C.
Next, `COc1cc(COc2nn(Cc3ccccc3)cc2C(=O)O)ccc1OCc1nc(-c2ccccc2)oc1C` [Example 2, 1-benzyl-3-({3-methoxy-4-[(5-methyl-2-phenyl-1,3-oxazol-4-yl)methoxy]benzyl}oxy)-1H-pyrazole-4-carboxylic acid]: 162 to 163 °C; `COc1cc(COc2nn(Cc3ccccc3)cc2C(N)=O)ccc1OCc1nc(-c2ccccc2)oc1C` [Example 3, 1-benzyl-3-({3-methoxy-4-[(5-methyl-2-phenyl-1,3-oxazol-4-yl)methoxy]benzyl}oxy)-1H-pyrazole-4-carboxamide]: 164 to 165 °C; `COc1cc(COc2nn(Cc3ccccc3)cc2CO)ccc1OCc1nc(-c2ccccc2)oc1C` [Example 4, [1-benzyl-3-({3-methoxy-4-[(5-methyl-2-phenyl-1,3-oxazol-4-yl)methoxy]benzyl}oxy)-1H-pyrazol-4-yl]methanol]: 90 to 91 °C.
Take `COc1cc(COc2nn(Cc3ccccc3)cc2C=O)ccc1OCc1nc(-c2ccccc2)oc1C` [Example 5, 1-benzyl-3-({3-methoxy-4-[(5-methyl-2-phenyl-1,3-oxazol-4-yl)methoxy]benzyl}oxy)-1H-pyrazole-4-carbaldehyde]: the melting point was 151 to 152 °C.
The same measure for `CCOC(=O)c1cn(Cc2ccccc2)nc1OCc1ccc(OCc2nc(-c3ccco3)oc2C)cc1` [Example 6, ethyl 1-benzyl-3-[(4-{[2-(2-furyl)-5-methyl-1,3-oxazol-4-yl]methoxy}benzyl)oxy]-1H-pyrazole-4-carboxylate]: 101 to 102 °C; for `Cc1oc(-c2ccco2)nc1COc1ccc(COc2nn(Cc3ccccc3)cc2C(=O)O)cc1` [Example 7, 1-benzyl-3-[(4{[2-(2-furyl)-5-methyl-1,3-oxazol-4-yl]methoxy}benzyl)oxy]-1H-pyrazole-4-carboxylic acid]: 170 to 171 °C.
Turning to `Cc1oc(-c2ccco2)nc1COc1ccc(COc2nn(Cc3ccccc3)cc2C(N)=O)cc1` [Example 8, 1-benzyl-3-[(4{[2-(2-furyl)-5-methyl-1,3-oxazol-4-yl]methoxy}benzyl)oxy]-1H-pyrazole-4-carboxamide], the melting point lay in the range of 139 to 140 °C.
In turn, `CC(=O)NC(=O)c1cn(Cc2ccccc2)nc1OCc1ccc(OCc2nc(-c3ccco3)oc2C)cc1` [Example 9, N-acetyl-1-benzyl-3-[(4{[2-(2-furyl)-5-methyl-1,3-oxazol-4-yl]methoxy}benzyl)oxy]-1H-pyrazole-4-carboxamide] showed a melting point of 193 to 194 °C.

Values taken from patent publication US7368578B2, “Five-membered heterocyclic compounds” (Takeda Pharmaceutical Company Limited, priority 2002, dated 2008).
